According to patent EP0157762B1, “NEW SUBSTITUTED PIPERIDINOGUANIDINES, PREPARATION PROCESS AND PHARMACEUTICAL COMPOSITIONS CONTAINING THEM” (BOUCHARA S.A., priority 1983, dated 1985):

Experiment: Solubility (qualitative)
Assay type: physicochemical

- solubilité dans les solvants organiques (organic solvents): peu soluble dans les solvants organiques
- solubilité dans l'eau (water): soluble dans l'eau
SMILES: CNC(=NC(N)=O)NCC1CCN(CCCC(=O)c2ccc(F)cc2)CC1 [Exemple I]
